The values that follow come from ChEMBL document CHEMBL4229543, “Squaramides as novel class I and IIB histone deacetylase inhibitors for topical treatment of cutaneous t-cell lymphoma” (Bioorg Med Chem Lett, 2018).

In brackets after ≈: the same amount, converted by molar mass.

System in the first data set: not listed separately
As to the kind of experiment: Clearance in human hepatocytes assessed per million cells at 1 uM after 5 to 90 mins by LC-MS/MS analysis. The settings on record: read-out: CLH. Format: ADME, cell-based, Hepatocyte.
For `CC(Nc1c(NCCCCCC(=O)NO)c(=O)c1=O)C12CC3CC(CC(C3)C1)C2` (stereo not drawn), the hepatocyte CLint at 1 µM was less than 5 µL/min/1e6 cells.
On the same count and under the same terms, the figure for `COc1ccc(Nc2c(NCCCCCC(=O)NO)c(=O)c2=O)cc1` is less than 4.7 µL/min/1e6 cells; for `CC(C)(CCCCC(=O)NO)Nc1c(Nc2ccc(C(F)(F)F)cc2)c(=O)c1=O` it is 29 µL/min/1e6 cells.

System in another data set: not listed separately
Nature of the data set: Solubility in PG/EtOH (96%) at 30 mg/mL after 24 hrs by UV-spectrometric method. Format: physicochemical. The following applies: PG/EtOH (96%).
Take `CC(Nc1c(NCCCCCC(=O)NO)c(=O)c1=O)C12CC3CC(CC(C3)C1)C2` (stereo not drawn): the solubility at 24 h came out at 39 mM (≈ 15.7 mg/mL).
On the same count and under the same terms, the figure for `COc1ccc(Nc2c(NCCCCCC(=O)NO)c(=O)c2=O)cc1` is 0.3 mM (≈ 0.104 mg/mL).
In turn, `CC(C)(CCCCC(=O)NO)Nc1c(Nc2ccc(C(F)(F)F)cc2)c(=O)c1=O` had a solubility at 24 h of 30 mM (≈ 12.4 mg/mL).

Another data set has as its system HuT78. As to the kind of experiment: Pro-apoptotic activity in human HUT78 cells after 18 hrs by caspase-Glo 3/7 assay. The class given is functional, cell-based. The following applies: HuT78, 18 h.
Turning to `CC(Nc1c(NCCCCCC(=O)NO)c(=O)c1=O)C12CC3CC(CC(C3)C1)C2` (stereo not drawn), the EC50 is 98 nM.
Same read-out and setting: the figure for `COc1ccc(Nc2c(NCCCCCC(=O)NO)c(=O)c2=O)cc1` is 4.9 nM; for `CC(C)(CCCCC(=O)NO)Nc1c(Nc2ccc(C(F)(F)F)cc2)c(=O)c1=O` it is 7.3 nM.

Another data set deals with Histone deacetylase 4 (Homo sapiens, UniProt P56524). Nature of the data set: Inhibition of human recombinant HDAC4 using fluorogenic HDAC substrate class 2a after 30 mins by fluorimetrc method.
Sequence of Histone deacetylase 4 (P56524 whole entry): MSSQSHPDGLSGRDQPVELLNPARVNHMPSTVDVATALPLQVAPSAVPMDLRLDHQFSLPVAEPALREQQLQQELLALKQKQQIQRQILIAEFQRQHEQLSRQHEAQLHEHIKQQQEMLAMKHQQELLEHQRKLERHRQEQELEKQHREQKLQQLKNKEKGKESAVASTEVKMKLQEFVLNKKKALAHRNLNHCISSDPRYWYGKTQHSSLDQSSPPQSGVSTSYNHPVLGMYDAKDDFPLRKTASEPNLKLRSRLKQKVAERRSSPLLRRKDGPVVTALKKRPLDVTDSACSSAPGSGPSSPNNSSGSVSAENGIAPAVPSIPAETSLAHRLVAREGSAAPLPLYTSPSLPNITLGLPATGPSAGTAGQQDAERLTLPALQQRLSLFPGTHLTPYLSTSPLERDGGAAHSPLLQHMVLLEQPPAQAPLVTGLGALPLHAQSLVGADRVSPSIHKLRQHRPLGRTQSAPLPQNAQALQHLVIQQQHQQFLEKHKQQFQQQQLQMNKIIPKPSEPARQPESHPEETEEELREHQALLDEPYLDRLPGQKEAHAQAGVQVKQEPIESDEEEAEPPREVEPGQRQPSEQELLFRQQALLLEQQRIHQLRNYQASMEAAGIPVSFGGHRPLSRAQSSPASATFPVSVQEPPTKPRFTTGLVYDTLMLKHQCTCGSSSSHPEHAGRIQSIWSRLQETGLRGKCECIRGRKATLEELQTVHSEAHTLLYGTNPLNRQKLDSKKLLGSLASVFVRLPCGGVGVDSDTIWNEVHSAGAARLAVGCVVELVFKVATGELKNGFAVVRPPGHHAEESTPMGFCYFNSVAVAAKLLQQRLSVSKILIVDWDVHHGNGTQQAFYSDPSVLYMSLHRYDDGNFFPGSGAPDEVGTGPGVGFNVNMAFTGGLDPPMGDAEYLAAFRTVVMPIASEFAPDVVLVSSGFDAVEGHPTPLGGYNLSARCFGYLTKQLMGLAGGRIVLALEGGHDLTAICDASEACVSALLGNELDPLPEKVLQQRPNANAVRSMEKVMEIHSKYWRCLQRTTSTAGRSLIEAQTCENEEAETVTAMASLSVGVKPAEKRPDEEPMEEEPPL
Conditions: not given
In the case of `CC(Nc1c(NCCCCCC(=O)NO)c(=O)c1=O)C12CC3CC(CC(C3)C1)C2` (stereo not drawn), the Ki was greater than 10000 nM.
As to `COc1ccc(Nc2c(NCCCCCC(=O)NO)c(=O)c2=O)cc1`, the Ki was greater than 10000 nM.
On the same count and under the same terms, the figure for `CC(C)(CCCCC(=O)NO)Nc1c(Nc2ccc(C(F)(F)F)cc2)c(=O)c1=O` is 3400 nM.

The target in a further data set is T1, NAD-dependent protein deacetylase sirtuin-7 (Homo sapiens, UniProt Q9NRC8).
T1 sequence (Q9NRC8 whole entry): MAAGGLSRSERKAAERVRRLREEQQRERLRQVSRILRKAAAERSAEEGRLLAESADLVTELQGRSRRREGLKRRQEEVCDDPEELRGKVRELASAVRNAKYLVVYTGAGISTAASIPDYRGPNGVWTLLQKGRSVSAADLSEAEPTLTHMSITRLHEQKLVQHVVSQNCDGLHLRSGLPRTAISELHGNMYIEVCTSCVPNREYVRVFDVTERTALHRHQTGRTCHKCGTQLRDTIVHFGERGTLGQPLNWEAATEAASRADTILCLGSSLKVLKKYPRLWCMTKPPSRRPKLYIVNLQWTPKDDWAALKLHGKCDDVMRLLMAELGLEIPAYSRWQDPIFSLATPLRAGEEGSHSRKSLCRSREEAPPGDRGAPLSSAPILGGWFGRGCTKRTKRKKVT
As to the kind of experiment: Inhibition of SIRT7 (unknown origin).
Conditions: not given
For `CC(Nc1c(NCCCCCC(=O)NO)c(=O)c1=O)C12CC3CC(CC(C3)C1)C2` (stereo not drawn), the Ki was greater than 10000 nM.
`COc1ccc(Nc2c(NCCCCCC(=O)NO)c(=O)c2=O)cc1` had a Ki greater than 10000 nM.
Regarding `CC(C)(CCCCC(=O)NO)Nc1c(Nc2ccc(C(F)(F)F)cc2)c(=O)c1=O`, the inhibition constant (Ki) was greater than 10000 nM.

Another data set concerns the target T2, Histone deacetylase 11 (Homo sapiens, UniProt Q96DB2).
T2 sequence (Q96DB2 whole entry): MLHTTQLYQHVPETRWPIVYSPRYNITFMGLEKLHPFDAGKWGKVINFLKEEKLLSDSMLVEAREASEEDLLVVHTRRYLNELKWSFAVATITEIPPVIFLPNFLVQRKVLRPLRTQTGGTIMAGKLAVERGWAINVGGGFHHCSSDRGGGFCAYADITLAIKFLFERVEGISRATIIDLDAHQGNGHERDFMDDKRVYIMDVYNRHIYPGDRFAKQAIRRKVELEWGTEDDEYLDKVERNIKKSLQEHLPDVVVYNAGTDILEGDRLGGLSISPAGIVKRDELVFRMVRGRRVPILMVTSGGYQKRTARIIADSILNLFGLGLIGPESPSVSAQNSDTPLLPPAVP
Nature of the data set: Inhibition of human recombinant HDAC11 using fluorogenic HDAC substrate class 2a after 30 mins by fluorimetrc method.
Conditions: not given
Regarding `CC(Nc1c(NCCCCCC(=O)NO)c(=O)c1=O)C12CC3CC(CC(C3)C1)C2` (stereo not drawn), the Ki was determined as 38 nM.
As for `COc1ccc(Nc2c(NCCCCCC(=O)NO)c(=O)c2=O)cc1`, the inhibition constant (Ki) was 140 nM.
Same read-out and setting: then `CC(C)(CCCCC(=O)NO)Nc1c(Nc2ccc(C(F)(F)F)cc2)c(=O)c1=O`, with 21 nM.

One may read the solubility as the concentration that dissolves in the medium under given conditions. One may read the EC50 as the midpoint of the concentration-response curve. Low readings indicate higher potency in that assay, high ones lower potency in that assay. The term Ki denotes a measure of affinity in units of concentration, obtained from inhibition or displacement.
